According to the supplement of paper PMC10307832:

Legend:
Assay in all cases: relative viability (nuclei count vs DMSO), 5 days (fraction); higher = more cells survive
TPCA-1 + OSI-027 = compound: C1=CC(=CC=C1C2=CC(=C(S2)NC(=O)N)C(=O)N)F [TPCA-1] + COc1cccc2cc(-c3nc([C@H]4CC[C@H](C(=O)O)CC4)n4ncnc(N)c34)[nH]c12 [OSI-027] (partner 0.5 µM)
Outline: (§1)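 Lung cancer cell lines were pin-tool dosed in 1536-well plates on the day after seeding, with either a lone drug or a fixed anchor-drug dose plus five library-drug doses (not always all listed) in √10 steps. Nuclei were counted on 4× images after 5 days. Relative viability is the ratio of treated-well to vehicle-well nuclei counts, with each value a median of duplicate plates.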

[1] = compound: C[C@]12O[C@H](C[C@]1(O)CO)n1c3ccccc3c3c4c(c5c6ccccc6n2c5c31)CNC4=O [Lestaurtinib] + O=C(CCCCCCC(=O)Nc1ccccc1)NO [Vorinostat] (partner 1 µM)
Outline: as §1

[2] = compound: C[C@]12O[C@H](C[C@]1(O)CO)n1c3ccccc3c3c4c(c5c6ccccc6n2c5c31)CNC4=O [Lestaurtinib] + CS(=O)(=O)N1CCN(Cc2cc3nc(-c4cccc5[nH]ncc45)nc(N4CCOCC4)c3s2)CC1 [Pictilisib] (partner 1 µM)
Outline: as §1

[3] = compound: C1/C(=C\C2=CC=CS2)/C(=O)/C(=C/C3=CC=CS3)/C1 + Cc1cc(Nc2cc(N3CCN(C)CC3)nc(Sc3ccc(NC(=O)C4CC4)cc3)n2)n[nH]1 [Tozasertib] (partner 0.1 µM)
Outline: as §1

Cell Line | relative viability (TPCA-1 + OSI-027; first compound 0.04 µM) | relative viability (TPCA-1 + OSI-027; first compound 0.1265 µM) | relative viability (TPCA-1 + OSI-027; first compound 0.4 µM) | relative viability (TPCA-1 + OSI-027; first compound 1.265 µM) | relative viability (TPCA-1 + OSI-027; first compound 4 µM) | relative viability ([1]; first compound 0.005 µM) | relative viability ([1]; first compound 0.01581 µM) | relative viability ([1]; first compound 0.05 µM) | relative viability ([1]; first compound 0.1581 µM) | relative viability ([1]; first compound 0.5 µM) | relative viability ([2]; first compound 0.005 µM) | relative viability ([2]; first compound 0.01581 µM) | relative viability ([2]; first compound 0.05 µM) | relative viability ([2]; first compound 0.1581 µM) | relative viability ([2]; first compound 0.5 µM) | relative viability ([3]; first compound 0.2 µM) | relative viability ([3]; first compound 0.6325 µM) | relative viability ([3]; first compound 2 µM) | relative viability ([3]; first compound 6.325 µM) | relative viability ([3]; first compound 20 µM)
ChaGo-K-1 | 0.652 | 0.518 | 0.617 | 0.577 | 0.276 | 0.767 | 0.807 | 0.614 | 0.465 | 0.356 | 0.726 | 1.15 | 0.663 | 0.421 | 0.356 | 0.241 | 0.235 | 0.259 | 0.212 | 0.197
EBC-1 |  |  |  |  |  |  |  |  |  |  | 0.427 | 0.402 | 0.35 | 0.452 | 0.21 |  |  |  |  | 
EKVX | 0.806 | 0.671 | 0.771 | 0.626 | 0.586 | 0.744 | 0.742 | 0.765 | 0.578 | 0.368 | 0.518 | 0.461 | 0.442 | 0.571 | 0.387 | 0.405 | 0.452 | 0.329 | 0.424 | 0.394
EMC-BAC-2 | 0.383 | 0.38 | 0.45 | 0.221 | 0.265 | 0.32 | 0.703 | 0.337 | 0.317 | 0.222 | 0.58 | 0.504 | 0.427 | 0.32 | 0.239 | 0.267 | 0.339 | 0.298 | 0.293 | 0.48
EPLC-272H | 0.346 | 0.236 | 0.305 | 0.277 | 0.288 | 0.394 | 0.463 | 0.496 | 0.276 | 0.0829 | 0.292 | 0.318 | 0.212 | 0.286 | 0.305 | 0.293 | 0.325 | 0.322 | 0.283 | 0.287
H3255 | 0.674 | 0.578 | 0.592 | 0.463 | 0.483 | 0.769 | 0.928 | 0.752 | 0.651 | 0.402 | 0.5 | 0.393 | 0.388 | 0.277 | 0.164 | 0.714 | 0.617 | 0.566 | 0.537 | 0.546
HARA | 0.811 | 0.454 | 0.627 | 0.355 | 0.131 | 0.559 | 0.648 | 0.53 | 0.311 | 0.104 | 0.356 | 0.451 | 0.334 | 0.187 | 0.179 | 0.121 | 0.123 | 0.116 | 0.101 | 0.0981
HCC-15 | 0.831 | 0.492 | 0.677 | 0.504 | 0.262 | 0.88 | 0.983 | 0.701 | 0.446 | 0.205 | 0.854 | 0.872 | 0.609 | 0.477 | 0.176 | 0.422 | 0.497 | 0.367 | 0.397 | 0.357
HCC-44 | 0.64 | 0.462 | 0.503 |  | 0.495 | 1.06 | 1.13 | 1.1 | 1.23 | 0.446 | 0.528 | 0.758 | 0.466 | 0.569 | 0.448 | 1.04 | 0.609 | 0.928 | 0.837 | 0.923
